Measured values reported in US8461389B2, “Psycho-pharmaceuticals” (University College Dublin, National University of Ireland, …, priority 2008, dated 2013).

What was measured:
[1] = tested on: C57B16 mice; assay: Pre-pulse inhibition of the startle response; type: in vivo; settings: i.p. once daily for 7 days; FIG. 5
Excerpt: An example of one way of testing for PPI: In the prepulse inhibition (PPI) procedure, the rodent is placed in a small chamber and exposed to a brief pulse of noise. The test is used to assess the subject's ability to “gate” or filter environmental information. In the acoustic (startle model) of sensorimotor gating, a weak acoustic stimulus (ie, the prepulse) decreases the reflexive flinching response (startle) produced by a second, more intense, stimulus (the pulse).
The main three parts of the procedure are prepulse, startle stimulus, and startle reflex. Different prepulse-to-pulse intervals, or lead intervals, are used: 30, 60, 120, 240 and 480 ms. Lead interval counts from the start of prepulse to the start of the pulse. With the interval exceeding 500 ms, prepulse facilitation, such as increased response, is most likely to follow. Burst of white noise is usually used as acoustic startle stimulus. Typical durations are 20 ms for prepulse and 40 ms for pulse. […] Startle response is measured in rodents using the so-called automated “startle chambers” or “stabilimeter chambers”, with detectors recording whole-body reaction. In humans, the movements of oculomotor muscles (“eye-blink reflex” or “eye-blink response” assessed using electromyographic recording of orbicularis oculi muscle and by oculography) could be used as a measure. […]

[2] = tested on: C57B16 mice; assay: Water maze spatial learning; type: in vivo; settings: i.p. once daily for 7 days; FIG. 6
Protocol: The test apparatus consists of a large circular pool (1 m diameter, 80 cm high, temperature 26° C.) with a platform (11 cm diameter) submerged 1.5 cm below the surface. Both the pool and the platform were constructed of black polyvinyl plastic, which offered no intra-maze cues. The experimental room contained several extra-maze visual cues. During training the platform was hidden in the same quadrant 30 cm away from the edge of the maze. There were five trials, each of them beginning with the rat facing the wall of the maze in one of three different locations. The time taken for the rat to find the platform within a 90 s period was recorded. Probe trials where the platform was removed from the maze and the time the animal spent in the target quadrant were also performed. […]
Finally, drugs inducing neurobehavioural profile are evaluated in the water maze spatial learning paradigm, a robust task of information acquisition and consolidation—a measure of pro-cognitive action. […]
The influence of Captodiamine on open-field behaviour (FIG. 3), novel object recognition (FIG. 8), forced swim test (FIGS. 10A and 10B) and water maze spatial learning (FIG. 6). […] Values were analysed using a two way ANOVA and Student t-test and those with a p values<0.05 were accepted as significant and where appropriate are indicated with an asterisk.

## CCCCSc1ccc(C(SCCN(C)C)c2ccccc2)cc1 (centres unmarked) [Captodiamine, 2-[(4-butylsulfanylphenyl)-phenyl-methyl]sulfanyl-N,N-dimethyl-ethanamin]
[1]
  pre-pulse inhibition of startle: no effect
[2]
  water maze spatial learning task performance: significant pro-cognitive action
